Where “and” joins values, the source holds several entries; their conditions need not be identical. Identical values can stand only once. Inconclusive results and toxic doses are left out. Rule for the calls: active = survival T/C of 150% or more; inactive = T/C below 125% in these data.
Test system: P388 leukemia ip, CD2F1 mice, survival T/C
Experiment: NCI In Vivo Anticancer Drug Screen. Data for tumor model P388 Leukemia (intraperitoneal) in CD2F1 (CDF1) mice
Conditions: endpoint: median survival time, higher = longer survival
In short: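 Mice carrying the transplanted tumor received test compound or vehicle. Survival was recorded in each group, and the value is the treated-group measurement divided by that of the vehicle-treated control group.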

[1] = dose: 50.0 mg/kg/injection, schedule: Q01DX009 (ip), vehicle: saline
[2] = dose: 100.0 mg/kg/injection, schedule: Q01DX009 (ip), vehicle: saline
[3] = dose: 200.0 mg/kg/injection, schedule: Q01DX009 (ip), vehicle: saline

Measured: T/C

Cc1ccc2c(c1)=N/C(=N\c1nc(O)c(O)[nH]1)N=2
inactive: dose: 60.0 mg/kg/injection, schedule: Q01DX009 (ip), vehicle: saline with Tween-80 106 % of control | dose: 100.0 mg/kg/injection, schedule: Q01DX009 (ip), vehicle: saline with Tween-80 106 % of control | dose: 140.0 mg/kg/injection, schedule: Q01DX009 (ip), vehicle: saline with Tween-80 109 % of control | dose: 210.0 mg/kg/injection, schedule: Q01DX009 (ip), vehicle: saline with Tween-80 111 % of control

O=C(O)CCN1c2ccccc2Sc2ccccc21
inactive: dose: 50.0 mg/kg/injection, schedule: Q01DX009 (ip), vehicle: Klucel (hydroxypropylcellulose) (HPC) 89 % of control | dose: 100.0 mg/kg/injection, schedule: Q01DX009 (ip), vehicle: Klucel (hydroxypropylcellulose) (HPC) 100 % of control | dose: 200.0 mg/kg/injection, schedule: Q01DX009 (ip), vehicle: Klucel (hydroxypropylcellulose) (HPC) 99 % of control | dose: 400.0 mg/kg/injection, schedule: Q01DX009 (ip), vehicle: Klucel (hydroxypropylcellulose) (HPC) 101 % of control

CN1CCC(C#N)(c2ccccn2)CC1
inactive: dose: 2.5 mg/kg/injection, schedule: Q01DX009 (ip), vehicle: saline 100 % of control | dose: 5.0 mg/kg/injection, schedule: Q01DX009 (ip), vehicle: saline 109 % of control | dose: 10.0 mg/kg/injection, schedule: Q01DX009 (ip), vehicle: saline 100 % of control

COC(=O)/C=C1\SC(OC)(N(C)c2ccccc2)N(C)C1=O (stereo unspecified)
inactive: dose: 60.0 mg/kg/injection, schedule: Q01DX005 (ip), vehicle: saline with Tween-80 90 % of control | dose: 120.0 mg/kg/injection, schedule: Q01DX005 (ip), vehicle: saline with Tween-80 98 % of control | dose: 240.0 mg/kg/injection, schedule: Q01DX005 (ip), vehicle: saline with Tween-80 91 % of control

CCC1CCCCN1Cc1ccccc1 (stereo unspecified)
inactive: dose: 60.0 mg/kg/injection, schedule: Q01DX005 (ip), vehicle: Klucel (hydroxypropylcellulose) (HPC) 108 % of control | dose: 120.0 mg/kg/injection, schedule: Q01DX005 (ip), vehicle: Klucel (hydroxypropylcellulose) (HPC) 110 % of control

Cc1cc(NC(=S)SCc2ccc(F)cc2)c([N+](=O)[O-])cc1C
inactive: dose: 50.0 mg/kg/injection, schedule: Q01DX009 (ip), vehicle: suspension in saline 93 % of control | dose: 100.0 mg/kg/injection, schedule: Q01DX009 (ip), vehicle: suspension in saline 90 % of control | dose: 200.0 mg/kg/injection, schedule: Q01DX009 (ip), vehicle: suspension in saline 98 % of control

OCC1OC(O)C(N=Cc2ccc3c(c2)OCO3)C(O)C1O (stereo unspecified)
inactive: dose: 50.0 mg/kg/injection, schedule: Q01DX005 (ip), vehicle: saline with Tween-80 104 % of control | dose: 100.0 mg/kg/injection, schedule: Q01DX005 (ip), vehicle: saline with Tween-80 100 % of control | dose: 200.0 mg/kg/injection, schedule: Q01DX005 (ip), vehicle: saline with Tween-80 102 % of control

Cc1ccc2snnc2c1
inactive: dose: 1.56 mg/kg/injection, schedule: Q01DX009 (ip), vehicle: Klucel (hydroxypropylcellulose) (HPC) 98 % of control | dose: 3.12 mg/kg/injection, schedule: Q01DX009 (ip), vehicle: Klucel (hydroxypropylcellulose) (HPC) 99 % of control | dose: 6.25 mg/kg/injection, schedule: Q01DX009 (ip), vehicle: Klucel (hydroxypropylcellulose) (HPC) 98 % of control and 95 % of control | dose: 12.5 mg/kg/injection, schedule: Q01DX001 (ip), vehicle: Klucel (hydroxypropylcellulose) (HPC) 100 % of control | dose: 25.0 mg/kg/injection, schedule: Q01DX001 (ip), vehicle: Klucel (hydroxypropylcellulose) (HPC) 95 % of control | dose: 50.0 mg/kg/injection, schedule: Q01DX001 (ip), vehicle: Klucel (hydroxypropylcellulose) (HPC) 99 % of control

COc1ccc2c(N)cccc2c1
inactive: [1] 92 % of control | [2] 88 % of control | [3] 95 % of control

CON(C)c1nc(N(C)C)nc(N(C)C)n1
inactive: [1] 91 % of control | [2] 98 % of control | [3] 96 % of control

NC1CC2(CCC1=O)c1ccccc1-c1ccccc12 (stereo unspecified)
inactive: dose: 100.0 mg/kg/injection, schedule: Q01DX001 (ip), vehicle: saline with Tween-80 105 % of control | dose: 400.0 mg/kg/injection, schedule: Q01DX001 (ip), vehicle: saline with Tween-80 102 % of control
